Here are results for 23 molecules from ChEMBL document CHEMBL2384944, “Metabolically Stable tert-Butyl Replacement” (ACS Med Chem Lett, 2013).

A word on the half-life: it is the time needed for the level to fall by half in the phase considered. What is called IC50 is the concentration at which inhibition is half-maximal. Low values mean higher potency, high ones lower potency. Broadly, the logP is a log measure of how a compound divides between an organic and an aqueous phase. The term clearance denotes a measure of how efficiently the substance is removed, as volume per time. Read a high clearance as a high capacity for elimination.

Data set [1] is described as follows: Half life in human liver microsomes at 1 uM in presence of NADPH.
The nature of data set [2]: Half life in rat liver microsomes at 1 uM in presence of NADPH. (Liver microsomes are a subcellular fraction often used to study metabolism.)
In another data set the target is CYP3A4/5 (Homo sapiens, UniProt P08684+P20815). The data set is described as follows: Reversible inhibition of CYP3A4/5 in human liver microsomes using midazolam as substrate preincubated for 30 mins followed by NADPH and substrate addition measured after 10 mins. In kind it is ADME, Microsome. As to conditions: probe midazolam.
The nature of data set [3]: Half life in Sprague-Dawley rat at <= 1 mg/kg, iv. As to conditions: in vivo. In kind it is ADME, organism-based. Set-up: dose 1 mg/kg, route intravenous.
Data set [4] in a line: Lipophilicity, log P of the compound. In kind it is physicochemical. The following applies: octanol/water.
Data set [5] can be described thus: Clearance in Sprague-Dawley rat at <= 1 mg/kg, iv. Format: ADME, organism-based. Set-up: dose 1 mg/kg, route intravenous. The following applies: in vivo.
Data set [6] can be described thus: Volume of distribution at steady state in Sprague-Dawley rat at <= 1 mg/kg, iv. On the set-up: dose 1 mg/kg, route intravenous. As to conditions: in vivo, read-out: Vdss. Format: ADME, organism-based.

Regarding `O=C(Nc1ccc(C(F)(F)F)cc1)c1ccc(C2(C(F)(F)F)CC2)cc1`, the values for the half-life at 1 µM in data set [1] (microsomes) and in data set [2] (microsomes) were over 6.75 h and 0.667 h, respectively.
On to `CC(C)(C)c1ccc(-c2ccc(F)cn2)cc1`, for which, on CYP3A4/5, the IC50 at 10 min was over 50 µM. The values for the half-life at 1 µM in data set [1] (microsomes) and in data set [2] (microsomes) were 0.45 h and 0.4 h, respectively.
`Fc1ccc(-c2ccc(C3(C(F)(F)F)CC3)cc2)nc1` registered an IC50 at 10 min on CYP3A4/5 of over 50 µM. The half-life at 1 µM is 1.07 h in data set [1] (liver microsomes) and over 6.75 h in data set [2] (liver microsomes).
Consider `CC(C)(C)c1ccc(-c2ccnc(C#N)c2)cc1`, for which the half-life at 1 µM was found to be 0.417 h in data set [1] (liver microsomes) and 0.133 h in data set [2] (liver microsomes).
The matching figures for `N#Cc1cc(-c2ccc(C3(C(F)(F)F)CC3)cc2)ccn1`: 1.15 h and 1.25 h.
Regarding `C[C@]12C=CC(=O)N[C@@H]1CC[C@@H]1[C@@H]2CC[C@]2(C)[C@@H](C(=O)NC3(C(F)(F)F)CC3)CC[C@@H]12`, the half-life at 1 µM in data set [1] (liver microsomes) was 1.9 h.
On to `CC(C)(C)c1ccc(-c2ccc(C#N)cn2)cc1`, for which the half-life in data set [3] was 2.3 h. Further, the logP in data set [4] is 4.2. At CYP3A4/5, this molecule registered an IC50 at 10 min of over 50 µM. In data set [5], this molecule had a clearance of 20 mL/min/kg. The half-life at 1 µM came to 0.85 h in data set [1] (microsomes) and 0.5 h in data set [2] (microsomes). Also, the Vd in data set [6] worked out at 2.5 L/kg.
Consider `CC(C)(CO)c1ccc(-c2ccc(C#N)cn2)cc1`, for which the figures for the half-life at 1 µM in data set [1] (microsomes) and in data set [2] (microsomes) were 3.37 h and 2.08 h, respectively.
The matching figures for `CC(C)(C#N)c1ccc(-c2ccc(C#N)cn2)cc1`: 2.03 h and 1.17 h.
Turning to `CC(C)(C(=O)O)c1ccc(-c2ccc(C#N)cn2)cc1`, the results for the half-life at 1 µM in data set [1] (microsomes) and in data set [2] (microsomes) were 4.57 h and 2.25 h, respectively.
With `CC1(c2ccc(-c3ccc(C#N)cn3)cc2)COC1`, in data set [3], the half-life is 0.4 h. On CYP3A4/5, this molecule had an IC50 at 10 min of over 50 µM. For the same molecule, the clearance in data set [5] came to 28 mL/min/kg. Moreover, the half-life at 1 µM in data set [1] (microsomes) turned out to be 0.633 h; in data set [2] (microsomes), 0.617 h. In addition, in data set [6], the Vd was found to be 1.3 L/kg.
With `CC(C)c1ccc(-c2ccc(C#N)cn2)cc1`, on CYP3A4/5, the IC50 at 10 min was over 50 µM. In addition, the values for the half-life at 1 µM in data set [1] (microsomes) and in data set [2] (microsomes) were 0.15 h and 0.117 h, respectively.
With `CC(c1ccc(-c2ccc(C#N)cn2)cc1)C(F)(F)F` (centres undefined), the half-life at 1 µM stood at 1.1 h in data set [1] (microsomes) and 0.417 h in data set [2] (microsomes).
For the molecule `N#Cc1ccc(-c2ccc(C3(C(F)(F)F)CC3)cc2)nc1`, in data set [3], the half-life is 9.1 h. Besides, in data set [4], the logP was found to be 4. At CYP3A4/5, this molecule displayed an IC50 at 10 min of over 50 µM. The clearance in data set [5] was 4.6 mL/min/kg. Also, the half-life at 1 µM in data set [1] (liver microsomes) was 2.5 h; in data set [2] (liver microsomes), over 6.67 h. In data set [6], the Vd came out at 3.4 L/kg.
For `N#Cc1ccc(-c2ccc(C3(C(F)(F)F)CC3)nc2)nc1`, the half-life at 1 µM turned out to be 1.83 h in data set [1] (liver microsomes) and 2.15 h in data set [2] (liver microsomes).
`CC(C)(C)c1ccc(C(=O)Nc2ccc(C(F)(F)F)nc2)cc1` showed a half-life in data set [3] of 0.2 h. Also, the IC50 at 10 min on CYP3A4/5 is over 50 µM. Besides, in data set [5], the clearance turned out to be 352 mL/min/kg. Further, the half-life at 1 µM in data set [1] (liver microsomes) was determined as 0.683 h; in data set [2] (liver microsomes), 0.417 h. Moreover, in data set [6], the Vd is 5.4 L/kg.
Regarding `O=C(Nc1ccc(C(F)(F)F)nc1)c1ccc(C2(C(F)(F)F)CC2)cc1`, the half-life in data set [3] is 3.4 h. Moreover, the IC50 at 10 min at CYP3A4/5 is over 50 µM. The molecule further registered a clearance in data set [5] of 25 mL/min/kg. The half-life at 1 µM in data set [1] (liver microsomes) is over 6.75 h; in data set [2] (liver microsomes), 3.28 h. In addition, the Vd in data set [6] came out at 6.2 L/kg.
Consider `CC(C)(C)c1ccc(C(=O)Nc2ccc(C#N)nc2)cc1`, for which the half-life at 1 µM was 0.85 h in data set [1] (liver microsomes) and 0.4 h in data set [2] (liver microsomes).
The matching figures for `N#Cc1ccc(NC(=O)c2ccc(C3(C(F)(F)F)CC3)cc2)cn1`: 1.47 h and 1.63 h.
For `CC(C)(C)c1ccc(C(=O)Nc2ccc(C#N)cc2)cc1`, in that order: 1.42 h and 0.2 h.
For `N#Cc1ccc(NC(=O)c2ccc(C3(C(F)(F)F)CC3)cc2)cc1`, the half-life at 1 µM in data set [1] (microsomes) is over 6.75 h; in data set [2] (microsomes), 0.783 h.
Take `CC(C)(C)c1ccc(C(=O)Nc2ccc(C(F)(F)F)cc2)cc1`: the half-life at 1 µM in data set [1] (liver microsomes) was 0.483 h; in data set [2] (liver microsomes), 0.2 h.
With `CC(C)(C)NC(=O)[C@H]1CC[C@H]2[C@@H]3CC[C@H]4NC(=O)C=C[C@]4(C)[C@H]3CC[C@]12C` [FINASTERIDE], the half-life at 1 µM in data set [1] (microsomes) was 1.05 h.
